Data: ChEMBL document CHEMBL5724806, “Unraveling interindividual differences and functional consequences of gut microbial metabolism of immunosuppressants” (2024)

Experiments:
Format in all cases: ADME
[1] = (§1) The drug is tested on the gut metagenome community of P-04 with ENA study accession number: PRJEB31790 for biotransformation under microaerobic condition. The drug concentrations were measured over 7 timepoints collected between 0 and 12 hours of incubation by liquid-chromatography-coupled mass spectrometry (LC–MS); parameters: dose 5 uM, timepoint 0, 0.75, 1.5, 3, 6, 9, 12 hours; conditions: 5 µM
[2] = as §1, with “A-10” for “P-04”, “anaerobic” for “microaerobic”; parameters: dose 5 uM, timepoint 0, 0.75, 1.5, 3, 6, 9, 12 hours; conditions: 5 µM
[3] = as §1, with “T-02” for “P-04”, “anaerobic” for “microaerobic”; parameters: dose 5 uM, timepoint 0, 0.75, 1.5, 3, 6, 9, 12 hours; conditions: 5 µM
[4] = as §1, with “P-01” for “P-04”, “anaerobic” for “microaerobic”; parameters: dose 5 uM, timepoint 0, 0.75, 1.5, 3, 6, 9, 12 hours; conditions: 5 µM
[5] = The drug is tested on Escherichia coli strain: DSM27469 for biotransformation under anaerobic condition. The drug concentrations were measured over 6 timepoints collected between 0 and 12 hours of incubation by liquid-chromatography-coupled mass spectrometry (LC–MS); parameters: dose 5 uM, timepoint 0, 1.5, 3, 6, 9, 12 hours; conditions: 5 µM
[6] = The drug is tested on Gemella haemolysans strain: DSM107751 for biotransformation under anaerobic condition. The drug concentrations were measured over 6 timepoints collected between 0 and 12 hours of incubation by liquid-chromatography-coupled mass spectrometry (LC–MS); parameters: dose 5 uM, timepoint 0, 1.5, 3, 6, 9, 12 hours; conditions: 5 µM
[7] = The drug is tested on Lactobacillus reuteri strain: DSM20016 for biotransformation under anaerobic condition. The drug concentrations were measured over 6 timepoints collected between 0 and 12 hours of incubation by liquid-chromatography-coupled mass spectrometry (LC–MS); parameters: dose 5 uM, timepoint 0, 1.5, 3, 6, 9, 12 hours; conditions: limosilactobacillus reuteri, 5 µM
[8] = The drug is tested on Gemella morbillorum strain: DSM20572 for biotransformation under microaerobic condition. The drug concentrations were measured over 6 timepoints collected between 0 and 12 hours of incubation by liquid-chromatography-coupled mass spectrometry (LC–MS); parameters: dose 5 uM, timepoint 0, 1.5, 3, 6, 9, 12 hours; conditions: 5 µM
[9] = The drug is tested on Streptococcus anginosus strain: DSM20563 for biotransformation under microaerobic condition. The drug concentrations were measured over 6 timepoints collected between 0 and 12 hours of incubation by liquid-chromatography-coupled mass spectrometry (LC–MS); parameters: dose 5 uM, timepoint 0, 1.5, 3, 6, 9, 12 hours; conditions: 5 µM
[10] = as §1, with “A-02” for “P-04”; parameters: dose 5 uM, timepoint 0, 0.75, 1.5, 3, 6, 9, 12 hours; conditions: 5 µM
[11] = The drug is tested on Bacteroides thetaiotaomicron strain: DSM2079 for biotransformation under anaerobic condition. The drug concentrations were measured over 6 timepoints collected between 0 and 12 hours of incubation by liquid-chromatography-coupled mass spectrometry (LC–MS); parameters: dose 5 uM, timepoint 0, 1.5, 3, 6, 9, 12 hours; conditions: 5 µM
[12] = as §1, with “A-01” for “P-04”, “anaerobic” for “microaerobic”; parameters: dose 5 uM, timepoint 0, 0.75, 1.5, 3, 6, 9, 12 hours; conditions: 5 µM
[13] = The drug is tested on Bacteroides vulgatus strain: DSM1447 for biotransformation under anaerobic condition. The drug concentrations were measured over 6 timepoints collected between 0 and 12 hours of incubation by liquid-chromatography-coupled mass spectrometry (LC–MS); parameters: dose 5 uM, timepoint 0, 1.5, 3, 6, 9, 12 hours; conditions: phocaeicola vulgatus, 5 µM
[14] = The drug is tested on Lactobacillus paracasei strain: ATCC27092 for biotransformation under anaerobic condition. The drug concentrations were measured over 6 timepoints collected between 0 and 12 hours of incubation by liquid-chromatography-coupled mass spectrometry (LC–MS); parameters: dose 5 uM, timepoint 0, 1.5, 3, 6, 9, 12 hours; conditions: lacticaseibacillus paracasei, 5 µM
[15] = The drug is tested on Lactobacillus gasseri strain: DSM20243 for biotransformation under anaerobic condition. The drug concentrations were measured over 6 timepoints collected between 0 and 12 hours of incubation by liquid-chromatography-coupled mass spectrometry (LC–MS); parameters: dose 5 uM, timepoint 0, 1.5, 3, 6, 9, 12 hours; conditions: 5 µM
[16] = as §1, with “P-02” for “P-04”, “anaerobic” for “microaerobic”; parameters: dose 5 uM, timepoint 0, 0.75, 1.5, 3, 6, 9, 12 hours; conditions: 5 µM
[17] = as §1, with “P-03” for “P-04”, “anaerobic” for “microaerobic”; parameters: dose 5 uM, timepoint 0, 0.75, 1.5, 3, 6, 9, 12 hours; conditions: 5 µM
[18] = The drug is tested on Lactobacillus ruminis strain: ATCC25644 for biotransformation under anaerobic condition. The drug concentrations were measured over 6 timepoints collected between 0 and 12 hours of incubation by liquid-chromatography-coupled mass spectrometry (LC–MS); parameters: dose 5 uM, timepoint 0, 1.5, 3, 6, 9, 12 hours; conditions: ligilactobacillus ruminis, 5 µM
[19] = as §1, with “T-03” for “P-04”; parameters: dose 5 uM, timepoint 0, 0.75, 1.5, 3, 6, 9, 12 hours; conditions: 5 µM
[20] = The drug is tested on Streptococcus sanguinis strain: DSM20567 for biotransformation under microaerobic condition. The drug concentrations were measured over 6 timepoints collected between 0 and 12 hours of incubation by liquid-chromatography-coupled mass spectrometry (LC–MS); parameters: dose 5 uM, timepoint 0, 1.5, 3, 6, 9, 12 hours; conditions: 5 µM
[21] = as §1, with “A-04” for “P-04”, “anaerobic” for “microaerobic”; parameters: dose 5 uM, timepoint 0, 0.75, 1.5, 3, 6, 9, 12 hours; conditions: 5 µM
[22] = as §1, with “A-01” for “P-04”; parameters: dose 5 uM, timepoint 0, 0.75, 1.5, 3, 6, 9, 12 hours; conditions: 5 µM
[23] = The drug is tested on Lactobacillus reuteri strain: DSM20016 for biotransformation under microaerobic condition. The drug concentrations were measured over 6 timepoints collected between 0 and 12 hours of incubation by liquid-chromatography-coupled mass spectrometry (LC–MS); parameters: dose 5 uM, timepoint 0, 1.5, 3, 6, 9, 12 hours; conditions: limosilactobacillus reuteri, 5 µM
[24] = The drug is tested on Alloscardovia omnicolens strain: DSM21503 for biotransformation under anaerobic condition. The drug concentrations were measured over 6 timepoints collected between 0 and 12 hours of incubation by liquid-chromatography-coupled mass spectrometry (LC–MS); parameters: dose 5 uM, timepoint 0, 1.5, 3, 6, 9, 12 hours; conditions: 5 µM
[25] = The drug is tested on Clostridium ramosum strain: DSM1402 for biotransformation under anaerobic condition. The drug concentrations were measured over 6 timepoints collected between 0 and 12 hours of incubation by liquid-chromatography-coupled mass spectrometry (LC–MS); parameters: dose 5 uM, timepoint 0, 1.5, 3, 6, 9, 12 hours; conditions: thomasclavelia ramosa, 5 µM
[26] = The drug is tested on Akkermansia muciniphila strain: DSM22959 for biotransformation under anaerobic condition. The drug concentrations were measured over 6 timepoints collected between 0 and 12 hours of incubation by liquid-chromatography-coupled mass spectrometry (LC–MS); parameters: dose 5 uM, timepoint 0, 1.5, 3, 6, 9, 12 hours; conditions: 5 µM
[27] = The drug is tested on Clostridium scindens strain: DSM5676 for biotransformation under anaerobic condition. The drug concentrations were measured over 6 timepoints collected between 0 and 12 hours of incubation by liquid-chromatography-coupled mass spectrometry (LC–MS); parameters: dose 5 uM, timepoint 0, 1.5, 3, 6, 9, 12 hours; conditions: 5 µM
[28] = The drug is tested on Alloscardovia omnicolens strain: DSM21503 for biotransformation under microaerobic condition. The drug concentrations were measured over 6 timepoints collected between 0 and 12 hours of incubation by liquid-chromatography-coupled mass spectrometry (LC–MS); parameters: dose 5 uM, timepoint 0, 1.5, 3, 6, 9, 12 hours; conditions: 5 µM
[29] = as §1, with “A-03” for “P-04”; parameters: dose 5 uM, timepoint 0, 0.75, 1.5, 3, 6, 9, 12 hours; conditions: 5 µM
[30] = The drug is tested on Lactobacillus fermentum strain: DSM20052 for biotransformation under anaerobic condition. The drug concentrations were measured over 6 timepoints collected between 0 and 12 hours of incubation by liquid-chromatography-coupled mass spectrometry (LC–MS); parameters: dose 5 uM, timepoint 0, 1.5, 3, 6, 9, 12 hours; conditions: limosilactobacillus fermentum, 5 µM

Bacterial Biotransformation [1] | Bacterial Biotransformation [2] | Bacterial Biotransformation [3] | Bacterial Biotransformation [4] | Bacterial Biotransformation [5] | Bacterial Biotransformation [7] | Bacterial Biotransformation [8] | Bacterial Biotransformation [9] | Bacterial Biotransformation [10] | Bacterial Biotransformation [11] | Bacterial Biotransformation [12] | Bacterial Biotransformation [13] | Bacterial Biotransformation [14] | Bacterial Biotransformation [15] | Bacterial Biotransformation [16] | Bacterial Biotransformation [17] | Bacterial Biotransformation [18] | Bacterial Biotransformation [19] | Bacterial Biotransformation [20] | Structure (SMILES) | Bacterial Biotransformation [6] | other results
Compound NOT metabolized | Compound NOT metabolized | Compound NOT metabolized | Compound metabolized | Compound NOT metabolized | Compound NOT metabolized | Compound NOT metabolized | Compound NOT metabolized | Compound metabolized | Compound NOT metabolized | Compound NOT metabolized | Compound NOT metabolized | Compound NOT metabolized | Compound NOT metabolized | Compound metabolized | Compound metabolized | Compound NOT metabolized | Compound NOT metabolized | Compound NOT metabolized | CNC(=C[N+](=O)[O-])NCCSCc1ccc(CN(C)C)o1 [RANITIDINE] | Compound NOT metabolized | Bacterial Biotransformation [21]: Compound metabolized; Bacterial Biotransformation [22]: Compound NOT metabolized; Bacterial Biotransformation [23]: Compound NOT metabolized; Bacterial Biotransformation [24]: Compound NOT metabolized; Bacterial Biotransformation [25]: Compound NOT metabolized; Bacterial Biotransformation [26]: Compound NOT metabolized; Bacterial Biotransformation [27]: Compound NOT metabolized; Bacterial Biotransformation [28]: Compound NOT metabolized; Bacterial Biotransformation [29]: Compound NOT metabolized; Bacterial Biotransformation [30]: Compound NOT metabolized
Compound NOT metabolized | Compound NOT metabolized | Compound NOT metabolized | Compound NOT metabolized | Compound NOT metabolized | Compound NOT metabolized | Compound NOT metabolized | Compound NOT metabolized | Compound metabolized | Compound metabolized | Compound NOT metabolized | Compound NOT metabolized | Compound NOT metabolized | Compound NOT metabolized | Compound NOT metabolized | Compound NOT metabolized | Compound NOT metabolized | Compound NOT metabolized | Compound NOT metabolized | CCC(C)(C)C(=O)O[C@H]1C[C@@H](C)C=C2C=C[C@H](C)[C@H](CC[C@@H]3C[C@@H](O)CC(=O)O3)[C@H]21 [SIMVASTATIN] | Compound NOT metabolized | Bacterial Biotransformation [21]: Compound NOT metabolized; Bacterial Biotransformation [22]: Compound NOT metabolized; Bacterial Biotransformation [23]: Compound NOT metabolized; Bacterial Biotransformation [24]: Compound NOT metabolized; Bacterial Biotransformation [25]: Compound NOT metabolized; Bacterial Biotransformation [26]: Compound NOT metabolized; Bacterial Biotransformation [27]: Compound metabolized; Bacterial Biotransformation [28]: Compound NOT metabolized; Bacterial Biotransformation [29]: Compound NOT metabolized; Bacterial Biotransformation [30]: Compound NOT metabolized
Compound NOT metabolized | Compound metabolized | Compound metabolized | Compound NOT metabolized | Compound NOT metabolized | Compound NOT metabolized | Compound NOT metabolized | Compound NOT metabolized | Compound metabolized | Compound NOT metabolized | Compound NOT metabolized | Compound NOT metabolized | Compound NOT metabolized | Compound metabolized | Compound NOT metabolized | Compound NOT metabolized | Compound NOT metabolized | Compound NOT metabolized | Compound NOT metabolized | CO[C@H]1C[C@@H]2CC[C@@H](C)[C@@](O)(O2)C(=O)C(=O)N2CCCC[C@H]2C(=O)O[C@H]([C@H](C)C[C@@H]2CC[C@@H](O)[C@H](OC)C2)CC(=O)[C@H](C)/C=C(\C)[C@@H](O)[C@@H](OC)C(=O)[C@H](C)C[C@H](C)/C=C/C=C/C=C/1C [SIROLIMUS] | Compound metabolized | Bacterial Biotransformation [21]: Compound metabolized; Bacterial Biotransformation [22]: Compound NOT metabolized; Bacterial Biotransformation [23]: Compound NOT metabolized; Bacterial Biotransformation [24]: Compound metabolized; Bacterial Biotransformation [25]: Compound NOT metabolized; Bacterial Biotransformation [26]: Compound NOT metabolized; Bacterial Biotransformation [27]: Compound metabolized; Bacterial Biotransformation [28]: Compound NOT metabolized; Bacterial Biotransformation [29]: Compound metabolized; Bacterial Biotransformation [30]: Compound NOT metabolized
